Reference: patent publication US20030036567A1, “PROPYLENE GLYCOL AS AN AGENT TO STIMUATE THROMBOPOIESIS” (priority 2001, published 2003)
Read-outs that look alike come from different tables or passages of the source.

Tests used:
[1] = system: CD34+CD38- hematopoietic stem cells; assay: Colony formation from CD34+CD38- hematopoietic stem cells in semi-solid culture; format: cell-based, human; conditions: 500 cells per ml, 14 days, Figure 1
Method: Example 3. CD34+CD38- cells isolated from human bone marrow (Poietic Technologies) were counted using a hemocytometer and plated in semi-solid culture media (MethoCult GF+H4435, StemCell Technologies, Vancouver, British Columbia) containing methylcellulose, fetal bovine serum, BSA, recombinant human (rh) SCF, rh GM-CSF, rh G-CSF, rh IL-3, rh IL-6, rh erythropoietin, and L-glutamine to which were added varying concentrations of propylene glycol (FW=76.1 Density=1.04g/ml Fisher Scientific). The cells were plated at a density of 500 cells per 1 ml per 35 mm petri dish. After incubation at 37 °C, 5% CO2 for 14 days, the dishes were scored for colony formation.

[2] = single oral dose; cited from earlier work
[3] = Case report Patient 2, ingestion of antifreeze containing 30% propylene glycol; format: in vivo, human
Method: Example 2. A person ingested an unknown amount of the antifreeze Freeze Proof containing 30% propylene glycol earlier. Following ingestion, the child acted normally and ate well until approximately 6 hours later when they developed slurred speech, right facial drooping, an abnormal, wobbling gait, and was noted walking into walls and unable sit up by […]. They were the brought to the emergency room approximately 12 hours after ingestion with the above symptoms. At that time a toxicological screen was obtained which was qualitatively positive for propylene glycol. They were then transferred to University Medical Center where their blood pressure was 106/70, pulse was 113, respiration was 18, temperature was 36.3 C. At that time they had slurred speech, good facial symmetry, intact cranial nerve examination, but an unsteady gait, and was drowsy and lethargic but arousable. Their pupils were equal and reactive to light. […] The child was given a charcoal and sorbitol lavage through an oral naso-gastric tube as well as IV fluid therapy with normal saline. Within 4 hours of admission, the child was able to walk and talk well without evidence of slurred speech. The following morning the child was discharged from the hospital with no evidence of the symptoms originally observed.

[4] = diet containing 6 or 12% propylene glycol; cited from earlier work
Murine bone marrow cells = assay: Long term culture initiating cell assay (LTCIC); format: cell-based, C57bl mice; conditions: 500 ng/ml, Figure 2
Method: Example 4. Murine bone marrow was obtained from the femurs of adult C57bl mice, suspended in Myelocult (Stem Cell Technologies, Vancouver Canada), and cells were isolated by centrifugation at 500g for 10 minutes at 4 °C. Viability was determined by Trypan blue exclusion and aliquots were taken for plating efficiency in methylcellulose culture (MethoCult, Stem Cell Technologies). The remaining cell suspension was plated at a density of 6.25 x10^4/well into 24 well plates containing irradiated FBMD-1 feeder layers. To appropriate wells, propylene glycol was added to final concentration of 500 ng/ml. At weekly interval the cells were demidepopulated and fed with 250μl fresh medium. The harvested cells were washed with PBS and added to a 2.5 ml tube of MethoCult. Two 35mm petri dishes containing 1 ml each were plated from each tube. After 10 days incubation at 37 °C, 5% CO2, the dishes were scored for colonies.

[5] = system: human proximal tubule (HPT) cells; conditions: normally proliferating cultured HPT cells; cited from earlier work
[6] = human, in vivo
From the text: Example 1. Patient 1 was a person with a history of congenital aqueductal stenosis diagnosed and treated with a Torkildson shunt. Nineteen months prior to admission, they sustained a minor head injury in a motor vehicle accident resulting in a shunt malfunction with recurrent headaches, necessitating treatment with a ventriculoperitoneal shunt. Consequent subdural hygromas became infected, leaving the patient with marked cognitive and motor impairments. They were transferred to a rehabilitation facility six months prior to admission to our hospital. […] All biochemical and hematologic abnormalities resolved within 36 hours. The patient remained well until four weeks prior to admission when they again developed fever (106), tachycardia (169 bpm), and tachypnea. Similar biochemical and hematological abnormalities were noted including a white blood cell count of 25,000 (per mm^3) and a thrombocyte count of 469,000 (per mm^3). Cultures of blood, urine, and CSF were negative. Within 36 hours the patient returned to baseline. Similar episodes were noted to occur at roughly seven day intervals. CT scans of chest, abdomen and pelvis, and a gallium scan were unremarkable. After the fourth recorded episode, the patient was transferred to our neurological unit for evaluation of an occult ventriculoperitoneal shunt infection or possible hypothalamic dysregulation.
On transfer, the patient was noted to have BP 120/80, HR 88 bpm and T 37.5. The general physical examination was notable only for generalized pallor and contractures of the lower extremities. They were awake but only able to follow single midline one-step commands. […] The patient was treated with kayexalate. The anion gap acidosis resolved within twelve hours. At that time, the patient was noted to develop oliguric renal insufficiency with a BUN of 41 (mg/dl) and creatinine of 2.2 (mg/dl). […] An unusual "green stool" which caked the patient's rectum was collected. Samples of the patient's blood, urine, and stool (collected 17 hours after the recorded onset of symptoms) were sent for toxicologic analysis. […]
In addition, prominent throughout the aspirate were eosinophils, mast cells as well as eo-basophils. Megakaryocytes were abundant.

[7] = accidental intoxication, cited from earlier work
[8] = occupational exposure; cited from earlier work

BUN [6] [mg/dL]	LDH [6] [U/liter]	SGOT [6] [U/liter]	anion gap [6]	bicarbonate [6] [mmol/L]	creatinine [6] [mg/dL]	creatinine kinase [6] [U/liter]	hematologic response to acute exposure [6]	potassium [6] [mmol/L]	Structure (SMILES)	effect on CFU formed from CD34+ cells [1]	spleen weight [2]	biochemical or hematological outcome [3]	erythrocyte effects [4]	increase of total cell number on the cultures over cells not exposed (Murine bone marrow cells) [%]	concentration with toxic effects [5] [µM]	bone marrow studies [6]	WBC ([7]; chart review)	anion gap [7]	bone marrow findings [8]
41	528	151	24	16	2.2	8400	dramatic leukocytosis and thrombocytosis	5.8	CC(O)CO (stereo not shown) [propylene glycol, 1,2-propanediol]	increased CFU formed from CD34+ cells	significant increase in spleen weight	no biochemical or hematological abnormalities	accelerated erythropoiesis and reduction in red blood cell life span	50	50000	relatively hypercellular marrow with increased myeloid precursors and megakaryocytes	25,000 per mm^3	28	–
–	–	–	–	–	–	–	–	–	COC(C)COC(C)CO (stereo not shown) [dipropylene glycol monomethyl ether]	–	–	–	–	–	–	–	–	–	generally hypocellular marrow with decreased myeloid to erythroid ratios and an abundance of stored iron
